Data on 15 molecules can be found in patent US9981908B2, “Amino acid derivatives” (priority 2013, dated 2018).

Like-named read-outs stand apart in the source and are kept apart here.

This assay addresses T1, pylRS/tRNA pair (Methanosarcina mazei, UniProt Q8PWY1, Y384F).
T1 construct: expressed in transfected cells; host or cells: HEK293 cells stably expressing pylRS
The format is cell-based. As to conditions: HEK293 cells stably expressing pylRS, nnAAs at 2 mM for 2-3 days; for incorporation in the GFP reporter gene (green cells) / MFI: tRNApyl and GFPY40 reporter; for Positive GFP Assay: transfected with tRNApyl and GFPY40 reporter, visual inspection under the microscope; for MFI: GFP fluorescence by flow cytometry, geometric mean of the fluorescent cells. From the text:
An in vitro cell based assay was developed to assess the compatibility of the pylRS/tRNA pair and the pyrrolysine analogs of the present invention (nnAAs) by and the efficiency of nnAAs integration into a target protein. For this, HEK293 cells stably expressing pylRS (SEQ ID NO 4) were transiently transfected with plasmids for the expression of tRNApyl (SEQ ID NO 7) and a reporter construct encoding GFPY40 (containing amber codon in place of tyrosine at amino acid residue number 40 (where 1 is the initiator methionine)) (SEQ ID NOs 10 and 11) using standard transfection protocols. Transfected cells were incubated with nnAAs at 2 mM for 2-3 days GFP production was analyzed qualitatively by visual inspection under the microscope. The GFP fluorescence was quantified by flow cytometry using an Accuri flow cytometer and the geometric mean of the fluorescent cells determined.
This cell based assay was used to determine whether the different nnAAs were suitable substrates for the pylRS and allowed its translation into a target protein. Cells expressing the PylRS/tRNApyl pair and containing a vector encoding the GFPY40 reporter gene were incubated in the presence of the nnAAs. nnAAs that are readily utilized by the PylRS/tRNApyl pair support the translation of the nnAA into the amber site of GFP and allow read-through of the gene producing full length GFP (fluorescent protein). The fluorescence intensity of the cells depends on the efficiency of nnAA incorporation. Thus, nnAAs that are poorly utilized produce weakly fluorescent or non-fluorescing cells. […] Furthermore, the relative expression levels in each sample was compared to those generated by substrates known to be efficiently utilized by pylRS.
(In a reporter assay the amount or activity of a reporter protein is the signal.)

T1 sequence (Q8PWY1 whole entry Y384F): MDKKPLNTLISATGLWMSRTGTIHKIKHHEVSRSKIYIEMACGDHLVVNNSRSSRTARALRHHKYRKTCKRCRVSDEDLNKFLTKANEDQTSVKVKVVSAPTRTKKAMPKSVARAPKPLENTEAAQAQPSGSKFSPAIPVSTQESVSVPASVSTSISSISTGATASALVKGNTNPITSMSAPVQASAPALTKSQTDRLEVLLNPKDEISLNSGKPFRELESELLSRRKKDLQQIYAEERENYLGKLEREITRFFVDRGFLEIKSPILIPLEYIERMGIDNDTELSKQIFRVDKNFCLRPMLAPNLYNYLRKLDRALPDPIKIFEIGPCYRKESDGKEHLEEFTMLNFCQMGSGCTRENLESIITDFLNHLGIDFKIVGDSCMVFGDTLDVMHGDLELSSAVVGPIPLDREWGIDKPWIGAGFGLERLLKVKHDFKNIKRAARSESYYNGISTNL

Consider `[N-]=[N+]=NCCOC(=O)NCCSCC(N)C(=O)O` (stereo in doubt) [Formula III.1, (2S)-2-amino-3-[(2-{[(2-azidoethoxy)carbonyl]amino}ethyl)sulfanyl]propanoic acid], for which the “incorporation in the GFP reporter gene (green cells)” value (“incorporation” for short) was “incorporated in the GFP reporter gene and yield green cells”; the “Positive GFP Assay” value is given as “Yes”.

In the case of `C#CCOC(=O)NCCSCC(N)C(=O)O` (stereo in doubt) [Formula III.2, (2S)-2-amino-3-[(2-{[(prop-2-yn-1-yloxy)carbonyl]amino}ethyl)sulfanyl]propanoic acid], the “incorporation” value is “incorporated in the GFP reporter gene and yield green cells”; the “Positive GFP Assay” value was “Yes”.

Take `C=CCOC(=O)NCCSCC(N)C(=O)O` (stereo in doubt) [Formula III.3, (2S)-2-amino-3-[(2-{[(prop-2-en-1-yloxy)carbonyl]amino}ethyl)sulfanyl]propanoic acid]: the “incorporation” value is “incorporated in the GFP reporter gene and yield green cells”; the “Positive GFP Assay” value is “Yes”.

Take `C=CCNC(=O)CCCSCC(N)C(=O)O` (stereo in doubt) [Formula III.12, (2S)-2-amino-3-({3-[(prop-2-en-1-yl)carbamoyl]propyl}sulfanyl)propanoic acid]: the “incorporation” value was “incorporated in the GFP reporter gene and yield green cells”; the “Positive GFP Assay” value is reported as “Yes”.

Turning to `[N-]=[N+]=NCCNC(=O)CCCSCC(N)C(=O)O` (stereo in doubt) [Formula III.13, (2S)-2-amino-3-({3-[(2-azidoethyl)carbamoyl]propyl}sulfanyl)propanoic acid], the “incorporation” value is “incorporated in the GFP reporter gene and yield green cells”; the “Positive GFP Assay” value is reported as “Yes”.

Regarding `[N-]=[N+]=NCCOC(=O)NCCCC[C@H](N)C(=O)O` [Formula IA.1, (2S)-2-amino-6-{[(2-azidoethoxy)carbonyl]amino}hexanoic acid], the MFI was 931,289 and the “Positive GFP Assay” value is listed as “Yes”. Also, the MFI (listed as 1A.1) amounted to 931289.

Consider `C#CCOC(=O)NCCCC[C@H](N)C(=O)O` [Formula IA.2, (2S)-2-amino-6-{[(prop-2-yn-1-yloxy)carbonyl]amino}hexanoic acid], for which the MFI is 1,676,250 and the “Positive GFP Assay” value is “Yes”. Under “listed as 1A.2”, the MFI was found to be 1676250.

Consider `C=CCOC(=O)NCCCC[C@H](N)C(=O)O` [Formula IA.3, (2S)-2-amino-6-{[(prop-2-en-1-yloxy)carbonyl]amino}hexanoic acid], for which the MFI is given as 2,250,000 and the “Positive GFP Assay” value is “Yes”. For the setting “listed as 1A.3”, this molecule showed an MFI of 2250000.

As for `[N-]=[N+]=NCCNC(=O)NCCCC[C@H](N)C(=O)O` [Formula IA.4, (2S)-2-amino-6-{[(2-azidoethyl)carbamoyl]amino}hexanoic acid], the “incorporation” value is “incorporated in the GFP reporter gene and yield green cells”; the MFI was 254250; the “Positive GFP Assay” value is on record as “Yes”.

Take `C=CCNC(=O)NCCCC[C@H](N)C(=O)O` [Formula IA.5, (2S)-2-amino-6-{[(prop-2-en-1-yl)carbamoyl]amino}hexanoic acid]: the “incorporation” value was “incorporated in the GFP reporter gene and yield green cells”.

Take `[N-]=[N+]=NCCOC(=O)NCC(=O)NC[C@H](N)C(=O)O` [Formula V.1, (2S)-2-amino-3-(2-{[(2-azidoethoxy)carbonyl]amino}acetamido)propanoic acid]: the “incorporation” value is “incorporated in the GFP reporter gene and yield green cells”; the “Positive GFP Assay” value is listed as “Yes”.

On to `C#CCOC(=O)NCC(=O)NC[C@H](N)C(=O)O` [Formula V.2, (2S)-2-amino-3-(2-{[(prop-2-yn-1-yloxy)carbonyl]amino}acetamido)propanoic acid], for which the “incorporation” value is “incorporated in the GFP reporter gene and yield green cells”.

On to `C=CCOC(=O)NCC(=O)NC[C@H](N)C(=O)O` [Formula V.3, (2S)-2-amino-3-(2-{[(prop-2-en-1-yloxy)carbonyl]amino}acetamido)propanoic acid], for which the “incorporation” value is “incorporated in the GFP reporter gene and yield green cells”; the “Positive GFP Assay” value is listed as “Yes”.

For the molecule `CCCC(N=[N+]=[N-])C(=O)NCCCC[C@H](N)C(=O)O` (stereo partly drawn) [Formula VII.1, (2S)-2-amino-6-(2-azidopentanamido)hexanoic acid], the “incorporation” value was “incorporated in the GFP reporter gene and yield green cells”; the “Positive GFP Assay” value is listed as “Yes”.

For the molecule `C=CCOC(=O)NC(CCN=[N+]=[N-])C(=O)NC[C@H](N)C(=O)O` (stereo partly drawn) [Formula VIII.1, (2S)-2-amino-3-(4-azido-2-{[(prop-2-en-1-yloxy)carbonyl]amino}butanamido)propanoic acid], the “Positive GFP Assay” value is reported as “Yes”.
